# Source: ChEMBL document CHEMBL5537143, “Synthesis and antimicrobial properties of guanidine-functionalized labdane type diterpenoids” (Eur J Med Chem, 2024)
# Legend:
# [1] = Acute toxicity in zebrafish embryo assessed as mortality rate at 16 microg/ml preincubated with compound for 24 hrs and measured after 24 hrs post fertilization; design: species or system Danio rerio; settings: in vivo, at 16 µg/mL
# [2] = Acute toxicity in zebrafish embryo assessed as mortality rate at 32 microg/ml preincubated with compound for 24 hrs and measured after 48 to 72 hrs post fertilization; design: species or system Danio rerio; settings: in vivo, at 32 µg/mL
# Pseudomonas aeruginosa [3] = test: Antimicrobial activity against Pseudomonas aeruginosa PAO1 assessed as inhibition of microbial growth at 128 microg/ml incubated for 24 hrs by broth-microdilution assay relative to control; type: functional
# Staphylococcus aureus [4] = test: Antimicrobial activity against Staphylococcus aureus 29213 assessed as inhibition of microbial growth incubated for 24 hrs by broth-microdilution assay; type: functional
# Staphylococcus aureus [5] = test: Antimicrobial activity against methicillin resistant Staphylococcus aureus 43300 assessed as inhibition of microbial growth incubated for 24 hrs by broth-microdilution assay; type: functional; settings: read-out: MIC
# [6] = system: Staphylococcus epidermidis; test: Antimicrobial activity against Staphylococcus epidermidis ATCC 12228 assessed as inhibition of microbial growth incubated for 24 hrs by broth-microdilution assay; type: functional; settings: Staphylococcus epidermidis, ATCC 12228, read-out: MIC
# [7] = system: Staphylococcus epidermidis; test: Antimicrobial activity against Staphylococcus epidermidis ATCC 35984 assessed as inhibition of microbial growth incubated for 24 hrs by broth-microdilution assay; type: functional; settings: Staphylococcus epidermidis, ATCC 35984, read-out: MIC
# Klebsiella pneumoniae [8] = test: Antimicrobial activity against Klebsiella pneumoniae ATCC 13883 assessed as inhibition of microbial growth incubated for 24 hrs by broth-microdilution assay; type: functional; settings: read-out: MIC
# Klebsiella pneumoniae [9] = test: Antimicrobial activity against Klebsiella pneumoniae ATCC BAA1705 assessed as inhibition of microbial growth incubated for 24 hrs by broth-microdilution assay; type: functional; settings: read-out: MIC
# Klebsiella pneumoniae [10] = test: Antimicrobial activity against Carbapenem -resistant Klebsiella pneumoniae ATCC 13883 assessed as inhibition of microbial growth incubated for 24 hrs by broth-microdilution assay; type: functional
# Klebsiella pneumoniae [11] = test: Antimicrobial activity against Carbapenem-resistant Klebsiella pneumoniae ATCC BAA1705 assessed as inhibition of microbial growth incubated for 24 hrs by broth-microdilution assay; type: functional
# Pseudomonas aeruginosa [12] = test: Antimicrobial activity against Pseudomonas aeruginosa 27853 assessed as inhibition of microbial growth at 128 microg/ml incubated for 24 hrs by broth-microdilution assay relative to control; type: functional
# Candida albicans [13] = test: Antifungal activity against Candida albicans ATCC 90028 assessed as reduction in fungal growth incubated for 48 hrs by CLSI based analysis; type: functional; settings: read-out: MIC
# Staphylococcus aureus [14] = test: Antimicrobial activity against Staphylococcus aureus ATCC 29213 assessed as inhibition of microbial growth incubated for 24 hrs by broth-microdilution assay; type: functional; settings: Staphylococcus aureus, ATCC 29213, read-out: MIC100
# Staphylococcus aureus [15] = test: Antimicrobial activity against Staphylococcus aureus ATCC 43300 assessed as inhibition of microbial growth incubated for 24 hrs by broth-microdilution assay; type: functional; settings: Staphylococcus aureus, ATCC 43300, read-out: MIC100
# Pseudomonas aeruginosa [16] = test: Antimicrobial activity against Pseudomonas aeruginosa ATCC 27853 assessed as inhibition of microbial growth incubated for 24 hrs by broth-microdilution assay; type: functional
# Pseudomonas aeruginosa [17] = test: Antimicrobial activity against Pseudomonas aeruginosa PAO1 assessed as inhibition of microbial growth incubated for 24 hrs by broth-microdilution assay; type: functional
# Candida albicans [18] = test: Antifungal activity against Candida albicans ATCC 10231 assessed as reduction in fungal growth incubated for 48 hrs by CLSI based analysis; type: functional; settings: read-out: MIC100
# Staphylococcus aureus [19] = test: Synergistic antimicrobial activity against methicillin resistant Staphylococcus aureus 43300 assessed as inhibition of microbial growth incubated for 24 hrs in presence of Oxacillin by checkerboard assay; type: functional; settings: read-out: MIC100
# Klebsiella pneumoniae [20] = test: Synergistic antimicrobial activity against Klebsiella pneumoniae ATCC BAA1705 assessed as inhibition of microbial growth incubated for 24 hrs in presence of Imipenem by checkerboard assay; type: functional; settings: read-out: MIC100
# Candida albicans [21] = test: Synergistic antifungal activity against Candida albicans ATCC 10231 assessed as reduction in fungal growth incubated for 48 hrs in presence of Voriconazole by CLSI based analysis; type: functional; settings: read-out: MIC100
# Staphylococcus aureus [22] = test: Synergistic antimicrobial activity against methicillin resistant Staphylococcus aureus 43300 assessed as Oxacillin MIC incubated for 24 hrs by checkerboard assay; type: functional; settings: read-out: MIC100
# Klebsiella pneumoniae [23] = test: Synergistic antimicrobial activity against Klebsiella pneumoniae ATCC BAA1705 assessed as Imipenem MIC incubated for 24 hrs by checkerboard assay; type: functional; settings: read-out: MIC100
# Candida albicans [24] = test: Synergistic antifungal activity against Candida albicans ATCC 10231 assessed as Voriconazole MIC incubated for 48 hrs by CLSI based analysis; type: functional; settings: read-out: MIC100
# Staphylococcus aureus [25] = test: Synergistic antimicrobial activity against methicillin resistant Staphylococcus aureus 43300 assessed as fractional inhibitory concentration index incubated for 24 hrs in presence of Oxacillin by checkerboard assay; type: functional
# Klebsiella pneumoniae [26] = test: Synergistic antimicrobial activity against Klebsiella pneumoniae ATCC BAA1705 assessed as fractional inhibitory concentration index incubated for 24 hrs in presence of Imipenem by checkerboard assay; type: functional
# Candida albicans [27] = test: Synergistic antifungal activity against Candida albicans ATCC 10231 assessed as fractional inhibitory concentration index incubated for 48 hrs in presence of Voriconazole by CLSI based analysis; type: functional
# [28] = Acute toxicity in zebrafish embryo assessed as mortality rate at 32 microg/ml preincubated with compound for 24 hrs and measured after 24 hrs post fertilization; design: species or system Danio rerio; settings: in vivo, at 32 µg/mL
# [29] = Acute toxicity in zebrafish embryo assessed as mortality rate at 4 microg/ml preincubated with compound for 24 hrs and measured after 48 to 72 hrs post fertilization; design: species or system Danio rerio; settings: in vivo, at 4 µg/mL
# [30] = Acute toxicity in zebrafish embryo assessed as mortality rate at 8 microg/ml preincubated with compound for 24 hrs and measured after 48 to 72 hrs post fertilization; design: species or system Danio rerio; settings: in vivo, at 8 µg/mL
# [31] = Acute toxicity in zebrafish embryo assessed as mortality rate at 16 microg/ml preincubated with compound for 24 hrs and measured after 48 to 72 hrs post fertilization; design: species or system Danio rerio; settings: in vivo, at 16 µg/mL
# [32] = Acute toxicity in zebrafish embryo assessed as mortality rate at 0.7 microg/ml preincubated with compound for 24 hrs and measured after 48 to 72 hrs post fertilization; design: species or system Danio rerio; settings: in vivo, at 0.7 µg/mL
# [33] = Acute toxicity in zebrafish embryo assessed as mortality rate at 2 microg/ml preincubated with compound for 24 hrs and measured after 48 to 72 hrs post fertilization; design: species or system Danio rerio; settings: in vivo, at 2 µg/mL
# [34] = Acute toxicity in zebrafish embryo preincubated with compound for 24 hrs and measured after 24 hrs post fertilization; design: species or system Danio rerio; settings: in vivo
# [35] = Acute toxicity in zebrafish embryo preincubated with compound for 24 hrs and measured after 48 to 96 hrs post fertilization; design: species or system Danio rerio; settings: in vivo
# [36] = Acute toxicity in zebrafish embryo assessed as mortality rate at 4 microg/ml preincubated with compound for 24 hrs and measured after 24 hrs post fertilization; design: species or system Danio rerio; settings: in vivo, at 4 µg/mL
# [37] = Acute toxicity in zebrafish embryo assessed as mortality rate at 8 microg/ml preincubated with compound for 24 hrs and measured after 24 hrs post fertilization; design: species or system Danio rerio; settings: in vivo, at 8 µg/mL
# [38] = Acute toxicity in zebrafish embryo assessed as mortality rate at 0.7 microg/ml preincubated with compound for 24 hrs and measured after 96 hrs post fertilization; design: species or system Danio rerio; settings: in vivo, at 0.7 µg/mL
# [39] = Acute toxicity in zebrafish embryo assessed as mortality rate at 2 microg/ml preincubated with compound for 24 hrs and measured after 96 hrs post fertilization; design: species or system Danio rerio; settings: in vivo, at 2 µg/mL
# [40] = Acute toxicity in zebrafish embryo assessed as mortality rate at 4 microg/ml preincubated with compound for 24 hrs and measured after 96 hrs post fertilization; design: species or system Danio rerio; settings: in vivo, at 4 µg/mL
# [41] = Acute toxicity in zebrafish embryo assessed as mortality rate at 8 microg/ml preincubated with compound for 24 hrs and measured after 96 hrs post fertilization; design: species or system Danio rerio; settings: in vivo, at 8 µg/mL
# [42] = Acute toxicity in zebrafish embryo assessed as mortality rate at 16 microg/ml preincubated with compound for 24 hrs and measured after 96 hrs post fertilization; design: species or system Danio rerio; settings: in vivo, at 16 µg/mL
# [43] = Acute toxicity in zebrafish embryo assessed as mortality rate at 32 microg/ml preincubated with compound for 24 hrs and measured after 96 hrs post fertilization; design: species or system Danio rerio; settings: in vivo, at 32 µg/mL
# [44] = Acute toxicity in zebrafish embryo preincubated with compound for 24 hrs and measured after 48 to 72 hrs post fertilization; design: species or system Danio rerio; settings: in vivo
# [45] = Acute toxicity in zebrafish embryo preincubated with compound for 24 hrs and measured after 96 hrs post fertilization; design: species or system Danio rerio; settings: in vivo
compound,measurement,setting,value
CC1(C)CCC[C@]2(C)[C@H]3CC[C@@](C)(CC(=O)NC(=N)N)O[C@]3(C)CC[C@@H]12,"mortality at 24 h, 16 microg/ml",[1],10%
same,"mortality at 24 h, 32 microg/ml",[2],100%
same,inhibition at 128 µg/mL,Pseudomonas aeruginosa [3],65%
same,MIC,Staphylococcus aureus [4],4 µg/mL
same,MIC,Staphylococcus aureus [5],4 µg/mL
same,MIC,[6],4 µg/mL
same,MIC,[7],4 µg/mL
same,MIC,Klebsiella pneumoniae [8],16 µg/mL
same,MIC,Klebsiella pneumoniae [9],32 µg/mL
same,MIC,Klebsiella pneumoniae [10],32 µg/mL
same,MIC,Klebsiella pneumoniae [11],32 µg/mL
same,inhibition at 128 µg/mL,Pseudomonas aeruginosa [12],50%
same,MIC,Candida albicans [13],16 µg/mL
same,MIC,Staphylococcus aureus [14],8 µg/mL
same,MIC,Staphylococcus aureus [15],8 µg/mL
same,MIC50,"Pseudomonas aeruginosa [16]; Pseudomonas aeruginosa, ATCC 27853",128 µg/mL
same,MIC65,Pseudomonas aeruginosa [17],128 µg/mL
same,MIC,Candida albicans [18],16 µg/mL
same,MIC,Staphylococcus aureus [19],2 µg/mL
same,MIC,Klebsiella pneumoniae [20],16 µg/mL
same,MIC,Candida albicans [21],2 µg/mL
same,MIC,Staphylococcus aureus [22],0.5 µg/mL
same,MIC,Klebsiella pneumoniae [23],2 µg/mL
same,MIC,Candida albicans [24],0.125 µg/mL
same,fractional inhibitory concentration index (FICI),Staphylococcus aureus [25],0.55
same,fractional inhibitory concentration index (FICI),Klebsiella pneumoniae [26],0.6
same,fractional inhibitory concentration index (FICI),Candida albicans [27],0.129
same,"mortality at 24 h, 32 microg/ml",[28],5%
same,mortality at 4 microg/ml,[29],0%
same,"mortality at 24 h, 8 microg/ml",[30],0%
same,mortality at 16 microg/ml,[31],100%
same,"mortality at 24 h, 0.7 microg/ml",[32],5%
same,mortality at 2 microg/ml,[33],0%
same,LC50 at 24 h,[34],93.4 µg/mL
same,LC50,[35],11.5 µg/mL
CC1(C)CCC[C@]2(C)[C@H]3CC[C@](C)(CC(=O)NC(=N)N)O[C@]3(C)CC[C@@H]12,"mortality at 24 h, 4 microg/ml",[36],0%
same,"mortality at 24 h, 16 microg/ml",[1],75%
same,"mortality at 24 h, 8 microg/ml",[37],15%
same,inhibition at 128 µg/mL,Pseudomonas aeruginosa [3],75%
same,MIC,Staphylococcus aureus [4],4 µg/mL
same,MIC,Staphylococcus aureus [5],4 µg/mL
same,MIC,[6],4 µg/mL
same,MIC,[7],4 µg/mL
same,MIC,Klebsiella pneumoniae [8],16 µg/mL
same,MIC,Klebsiella pneumoniae [9],32 µg/mL
same,MIC,Klebsiella pneumoniae [10],32 µg/mL
same,MIC,Klebsiella pneumoniae [11],32 µg/mL
same,inhibition at 128 µg/mL,Pseudomonas aeruginosa [12],70%
same,MIC,Candida albicans [13],16 µg/mL
same,MIC,Staphylococcus aureus [14],8 µg/mL
same,MIC,Staphylococcus aureus [15],8 µg/mL
same,MIC70,Pseudomonas aeruginosa [16],128 µg/mL
same,MIC75,Pseudomonas aeruginosa [17],128 µg/mL
same,MIC,Candida albicans [18],16 µg/mL
same,MIC,Staphylococcus aureus [19],4 µg/mL
same,MIC,Klebsiella pneumoniae [20],16 µg/mL
same,MIC,Candida albicans [21],4 µg/mL
same,MIC,Staphylococcus aureus [22],0.125 µg/mL
same,MIC,Klebsiella pneumoniae [23],2 µg/mL
same,MIC,Candida albicans [24],0.125 µg/mL
same,fractional inhibitory concentration index (FICI),Staphylococcus aureus [25],0.512
same,fractional inhibitory concentration index (FICI),Klebsiella pneumoniae [26],0.6
same,fractional inhibitory concentration index (FICI),Candida albicans [27],0.254
same,"mortality at 96 h, 0.7 microg/ml",[38],0%
same,"mortality at 96 h, 2 microg/ml",[39],0%
same,"mortality at 96 h, 4 microg/ml",[40],5%
same,"mortality at 96 h, 8 microg/ml",[41],95%
same,"mortality at 96 h, 16 microg/ml",[42],100%
same,"mortality at 96 h, 32 microg/ml",[43],100%
same,"mortality at 24 h, 32 microg/ml",[28],95%
same,mortality at 4 microg/ml,[29],0%
same,"mortality at 24 h, 8 microg/ml",[30],35%
same,mortality at 16 microg/ml,[31],100%
same,LC50 at 24 h,[44],8.1 µg/mL
same,LC50 at 24 h,[34],14 µg/mL
same,LC50 at 96 h,[45],6 µg/mL
